In test [1] the test system is human iPS cells (1231A3 strain). In words: Neural tissue / neuroepithelium formation in cell aggregates, bright field observation. Format: cell-based. The conditions noted are these: for cell aggregate growth and neuroepithelium formation: step 1 for 1 day: SB431542 5 μM or LDN193189 100 nM, both U-bottom plate and F-bottom culture dish, day 19. The protocol: The above human iPS cells were treated with the cell dispersion solution by using TrypLE Select (Life Technologies), further dispersed into single cells by pipetting operation, and the above human iPS cells dispersed into single cells were suspended in 100 μl of a serum-free medium at 1.2×10^4 cells per well of a non-cell-adhesive 96-well culture plate ([…], manufactured by SUMITOMO BAKELITE), and subjected to suspension culturing at 37° C., 5% CO2. As the serum-free medium (gfCDM+KSR) therefor, a serum-free medium which is a 1:1 mixture of F-12 medium and IMDM medium supplemented with 10% KSR, 450 μM 1-monothioglycerol, 1× Chemically defined lipid concentrate was used. At the time of the start of suspension culturing (day 0 after the start of suspension culturing, start of step 2), Y27632 (final concentration 20 μM) was added to the above serum-free medium. By day 2 after the start of suspension culturing, cell aggregates were formed under both conditions with preconditioning and conditions without preconditioning (step 2 completed, step 3 start). On day 3 after the start of suspension culturing, a serum-free medium (50 μl) free of Y27632 was added. On day 6 or later after the start of suspension culturing, a half amount of the medium was changed to the above serum-free medium free of Y27632 once per 2-4 days. In the half-medium change operation, a half volume, namely 75 μl, of the medium in the culture vessel was discarded, the above fresh serum-free medium (75 μl) was added to make the total medium amount 150 μl. […]
At the time of the start of suspension culturing (day 0 after the start of suspension culturing, start of step 2), the cells were cultured under the following 2 conditions including condition 1 and condition 2. As condition 1(+SAG), at the time of the start of suspension culturing, Y27632 (final concentration 20 μM) and SAG (Shh signal transduction pathway activating substance, 300 nM) were added to the above serum-free medium. As condition 2(−SAG), at the time of the start of suspension culturing, Y27632 (final concentration 20 μM) was added to the above serum-free medium and SAG was not added. By day 2 after the start of suspension culturing, cell aggregates were formed (step 2 completed, step 3 start) under both conditions. On day 3 after the start of suspension culturing, a medium (50 μl) free of Y27632, SAG and containing human recombinant BMP4 (manufactured by R&D) was added such that the final concentration of exogenous human recombinant BMP4 was 1.5 nM (55 ng/ml). On day 6 after the start of suspension culturing, a half amount of the medium was changed with a serum-free medium free of Y27632, SAG and human recombinant BMP4. Thereafter, a half amount of the medium was changed, once every 2-4 days, with the above serum-free medium free of Y27632, SAG, and human recombinant BMP4.
The thus-prepared cells were subjected to bright field observation on day 18 after the start of suspension culturing under an inverted microscope (KEYENCE) (FIG. 15).
At the time of the start of suspension culturing (day 0 after the start of suspension culturing, start of step 2), the cells were cultured under the following 2 conditions including condition 1 and condition 2. As condition 1(+SAG), at the time of the start of suspension culturing, Y27632 (final concentration 20 μM) and SAG (Shh signal transduction pathway activating substance, final concentration 30 nM) were added to the above serum-free medium. As condition 2(−SAG), at the time of the start of suspension culturing, Y27632 (final concentration 20 μM) was added to the above serum-free medium and SAG was not added. By day 2 after the start of suspension culturing, cell aggregates were formed under both conditions (step 2 completed, step 3 start). […]

For test [2] the test system is unchanged. As to the kind of experiment: Immunostaining for pluripotent stem cell marker Oct3/4 after preconditioning. The following applies: 1 day; SB431542 5 μM, LDN193189 100 nM, SAG 300 nM, or SB431542 5 μM and LDN193189 100 nM; positive = intensity not less than 2 times background. The test is classed as cell-based. On the procedure:
Human iPS cells (1231A3 strain) were subjected to feeder-free culturing according to the method described in Example 1 in StemFit medium until one day before subconfluence. The human iPS cells one day before subconfluence were subjected to feeder-free culturing in the presence of SB431542 (TGFβR inhibitor, 5 μM), LDN193189 (BMPR inhibitor, 100 nM), SAG (Shh activating substance, 300 nM), or TGFβR inhibitor and BMPR inhibitor (SB431542 5 μM, and LDN193189 100 nM) (step 1: preconditioning treatment), or in the absence thereof (step 1: without preconditioning) for 1 day. The obtained cells were each fixed with 4% para-formaldehyde, and immunostaining for Oct3/4, which is one of the pluripotent stem cell markers, was performed and the immunostained cells were subjected to bright field observation and fluorescence image observation under an inverted fluorescence microscope (BIOREVO, KEYENCE).

Setting [3] is: step 1 for 1 day: SB431542 5 μM, LDN193189 100 nM or SAG 300 nM, SAG 300 nM in step 2, with or without BMP4 1.5 nM in step 3, day 23.
The mark [4] stands for this setting: LDN193189 100 nM 1 day in step 1, day 23.

The values that follow come from patent publication US12492373B2, “Production method for nerve tissue” (Racthera Co., Ltd., priority 2014, dated 2025).

With `CNC1CCC(N(Cc2cccc(-c3ccncc3)c2)C(=O)c2sc3ccccc3c2Cl)CC1` (centres unmarked) [SAG], the “cell aggregate and neural tissue formation” value is “a neural tissue could be formed efficiently” in test [1] (step 1: SAG 300 nM for 24-144 hr, co-presence of A83-01 0.5 μM for the last 24 hr, SAG 30 nM added or not in step 2, day 16); “a neural tissue can be formed efficiently” in test [1] (step 1: SAG 300 nM for 48 or 72 hr, or A83-01 0.5 μM and SAG 300 nM for 24, 48 or 72 hr, SAG 30 nM added or not added in step 2, BMP4 1.5 nM on day 3, day 17); “a neural tissue can be formed efficiently” in test [1] (setting [3]). Besides, the “Oct3/4 immunostaining of preconditioned cells” value (“Oct3/4 immunostaining” below) in test [2] is “Oct3/4-positive”.

Take `NC(=O)c1ccc(-c2nc(-c3ccc4c(c3)OCO4)c(-c3ccccn3)[nH]2)cc1` [SB431542, 4-(5-benzol[1,3]dioxol-5-yl-4-pyridin-2-yl-1H-imidazol-2-yl)-benzamide]: the “cell aggregate growth and neuroepithelium formation” value in test [1] (SAG 300 nM in step 2) is “a cell aggregate grew and neuroepithelium was formed”. Further, in test [1] (setting [3]), the “cell aggregate and neural tissue formation” value was “a neural tissue can be formed efficiently”. Besides, in test [2], the “Oct3/4 immunostaining” value was “Oct3/4-positive”.

Take `c1ccc2c(-c3cnn4cc(-c5ccc(N6CCNCC6)cc5)cnc34)ccnc2c1` [LDN193189, 4-[6-(4-piperazin-1-ylphenyl)pyrazolo[1,5-a]pyrimidin-3-yl]quinoline]: in test [1] (setting [4]), the “cell aggregate containing a neural tissue (maintained, neural tissue not less than 10%)” value is on record as “about 100%”; the “cell aggregate with a bad form (collapsed, neural tissue not more than 3%)” value is “about 0%”; the “cell aggregate with a medium level form (maintained, neural tissue not more than 10%)” value is reported as “about 0%”; the “neural tissue formation in step 3” value is recorded as “a neural tissue having a neuroepithelial structure was formed”. Moreover, the “cell aggregate growth and neuroepithelium formation” value in test [1] (SAG 300 nM in step 2) is “a cell aggregate grew and neuroepithelium was formed”. Further, in test [1] (setting [3]), the “cell aggregate and neural tissue formation” value is recorded as “a neural tissue can be formed efficiently”. In addition, the “Oct3/4 immunostaining” value in test [2] is recorded as “Oct3/4-positive”.
